Consider 17 compounds from patent US10968178B2, “IP6K inhibitors” (TAKEDA PHARMACEUTICAL COMPANY LIMITED, priority 2017, dated 2021).

Type in all cases: biochemical
Test [1] addresses T1, human IP6K1 (Homo sapiens, UniProt Q92551).
T1 construct: human IP6K1 (1-441) gene; GST; made in house; host or cells: Sf-9 insect cells
The test is described as follows: IP6K enzyme inhibitory assay (ADP-Glo Kinase Assay), human IP6K1. The following applies: compound concentration 0.1 μM; read-out: ADP-Glo method inhibitory rate (%) human IP6K1. The procedure, abridged: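 Inhibition of human IP6K1 was determined with Promega's ADP-Glo Kinase Assay in 384 well plates. Test compound diluted in assay buffer (20 mM HEPES (pH 7.5), 6 mM MgCl2, 0.01% Tween-20, 1 mM DTT) was added at 2 μL, then 2 μL of enzyme started the reaction for 60 min at room temperature. Next came 3 μL ADP-Glo solution for 30 min and 6 μL Kinase-Detection solution for 60 min. Luminescence was read on an Envision plate reader.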

Test [2] has as its target T2, human IP6K2 (Homo sapiens, UniProt Q9UHH9).
T2 construct: human IP6K2 (1-426) gene; GST; made in house; host or cells: Sf-9 insect cells
T2 sequence (Q9UHH9 1-426): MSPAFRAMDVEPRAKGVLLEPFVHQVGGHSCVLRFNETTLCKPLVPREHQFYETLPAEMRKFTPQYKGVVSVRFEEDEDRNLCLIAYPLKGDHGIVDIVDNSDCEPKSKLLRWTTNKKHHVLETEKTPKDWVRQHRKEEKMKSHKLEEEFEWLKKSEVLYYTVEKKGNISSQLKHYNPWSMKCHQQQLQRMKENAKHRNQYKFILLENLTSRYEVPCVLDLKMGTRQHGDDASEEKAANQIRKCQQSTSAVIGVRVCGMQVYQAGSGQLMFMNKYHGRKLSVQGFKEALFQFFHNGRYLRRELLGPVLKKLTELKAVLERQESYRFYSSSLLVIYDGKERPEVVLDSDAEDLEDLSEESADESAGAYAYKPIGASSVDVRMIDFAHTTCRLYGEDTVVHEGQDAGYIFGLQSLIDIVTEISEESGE
Kind of test: IP6K enzyme inhibitory assay (ADP-Glo Kinase Assay), human IP6K2. The conditions noted are these: compound concentration 0.1 μM; read-out: ADP-Glo method inhibitory rate (%) human IP6K2. The method in brief:
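The inhibitory activity against human IP6K2 was measured with Promega's ADP-Glo Kinase Assay in 384 well plates. Test compound, diluted in assay buffer (20 mM HEPES (pH 7.5), 6 mM MgCl2, 0.01% Tween-20, 1 mM DTT), was added at 2 μL. Adding 2 μL of diluted enzyme started the reaction, which ran for 60 min at room temperature. Next, 3 μL ADP-Glo solution (30 min) and 6 μL Kinase-Detection solution (60 min) were added, and luminescence was read on an Envision plate reader.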

For test [3], the target named is T3, human IP6K3 (Homo sapiens, UniProt Q96PC2).
T3 construct: human IP6K3 (1-410) gene; made in house; host or cells: BL21 (DE3) Escherichia coli
T3 sequence (Q96PC2 1-410): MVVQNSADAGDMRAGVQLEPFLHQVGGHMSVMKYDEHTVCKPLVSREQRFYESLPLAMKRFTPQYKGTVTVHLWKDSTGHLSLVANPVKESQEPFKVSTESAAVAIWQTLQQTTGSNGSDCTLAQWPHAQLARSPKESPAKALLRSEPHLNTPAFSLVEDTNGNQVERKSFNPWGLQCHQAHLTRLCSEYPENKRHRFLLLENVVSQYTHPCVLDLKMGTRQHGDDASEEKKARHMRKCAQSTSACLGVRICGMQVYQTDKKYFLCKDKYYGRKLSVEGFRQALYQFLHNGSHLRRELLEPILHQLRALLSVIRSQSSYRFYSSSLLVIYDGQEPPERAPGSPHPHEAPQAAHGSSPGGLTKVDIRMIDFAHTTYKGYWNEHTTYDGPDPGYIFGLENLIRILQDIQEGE
Kind of test: IP6K enzyme inhibitory assay (ADP-Glo Kinase Assay), human IP6K3. The conditions noted are these: compound concentration 0.1 μM; read-out: ADP-Glo method inhibitory rate (%) human IP6K3. The method in brief: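 Recombinant human IP6K (IP6K3 residues 1-410, E. coli, Ni-NTA purified) incubated with compound in 20 mM HEPES pH 7.5, 6 mM MgCl2, 0.01% Tween-20, 1 mM DTT for 60 min at room temperature. ADP formed read as luminescence by ADP-Glo.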

T1 sequence (Q92551 whole entry): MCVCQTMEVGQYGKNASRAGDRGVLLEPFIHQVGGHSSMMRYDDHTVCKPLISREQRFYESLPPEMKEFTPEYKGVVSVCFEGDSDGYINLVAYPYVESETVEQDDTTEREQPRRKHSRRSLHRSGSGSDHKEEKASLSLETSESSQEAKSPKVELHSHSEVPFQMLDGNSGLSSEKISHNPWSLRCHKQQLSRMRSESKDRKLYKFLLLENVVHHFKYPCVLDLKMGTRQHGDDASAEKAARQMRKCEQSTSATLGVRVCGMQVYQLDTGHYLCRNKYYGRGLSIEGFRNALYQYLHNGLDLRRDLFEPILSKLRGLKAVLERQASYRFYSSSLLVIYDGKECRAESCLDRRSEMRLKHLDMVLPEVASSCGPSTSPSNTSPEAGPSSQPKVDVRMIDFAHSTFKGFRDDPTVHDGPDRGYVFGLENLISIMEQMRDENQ

On to `N#Cc1cccc(F)c1O[C@H]1CC[C@@]2(CC1)C(=O)Nc1ccc(C(=O)O)cc12` [Example 62, (1r,4r)-4-(2-cyano-6-fluorophenoxy)-2′-oxo-1′,2′-dihydrospiro[cyclohexane-1,3′-indole]-5′-carboxylic acid], for which the figures for the inhibition at 0.1 µM in test [1], in test [2] and in test [3] were 95%, 91% and 99%, respectively.

For the compound `O=C(O)c1ccc2c(c1)[C@]1(CC[C@@H](Oc3cc(F)cc(F)c3)CC1)C(=O)N2` [Example 58, (1r,4r)-4-(3,5-difluorophenoxy)-2′-oxo-1′,2′-dihydrospiro[cyclohexane-1,3′-indole]-5′-carboxylic acid], the inhibition at 0.1 µM in test [1] was 72%; in test [2], 83%; in test [3], 90%.

Take `COc1cc(Cl)ccc1O[C@H]1CC[C@]2(CC1)C(=O)Nc1ccc(C(=O)O)cc12` [Example 83, (1s,4s)-4-(4-chloro-2-methoxyphenoxy)-2′-oxo-1′,2′-dihydrospiro[cyclohexane-1,3′-indole]-5′-carboxylic acid]: the inhibition at 0.1 µM turned out to be 97% in test [1], 100% in test [2] and 102% in test [3].

For `N#Cc1ccc(O[C@H]2CC[C@@]3(CC2)C(=O)Nc2ccc(C(=O)O)cc23)cc1F` [Example 61, (1r,4r)-4-(4-cyano-3-fluorophenoxy)-2′-oxo-1′,2′-dihydrospiro[cyclohexane-1,3′-indole]-5′-carboxylic acid], the values for the inhibition at 0.1 µM in test [1], in test [2] and in test [3] were 100%, 95% and 100%, respectively.

For the compound `O=C(O)c1ccc2c(n1)[C@]1(CC[C@@H](Oc3ncc(C4CC4)cc3C(F)(F)F)CC1)C(=O)N2` [Example 109, (1r,4r)-4-((5-cyclopropyl-3-(trifluoromethyl)pyridin-2-yl)oxy)-2′-oxo-1′,2′-dihydrospiro[cyclohexane-1,3′-pyrrolo[3,2-b]pyridine]-5′-carboxylic acid], the inhibition at 0.1 µM in test [1] stood at 94%; in test [2], 95%; in test [3], 95%.

With `O=C(O)c1ccc2c(n1)[C@]1(CC[C@@H](Oc3ncc(C(F)(F)F)cc3Cl)CC1)C(=O)N2` [Example 105, (1r,4r)-4-((3-chloro-5-(trifluoromethyl)pyridin-2-yl)oxy)-2′-oxo-1′,2′-dihydrospiro[cyclohexane-1,3′-pyrrolo[3,2-b]pyridine]-5′-carboxylic acid], the inhibition at 0.1 µM in test [1] stood at 86%; in test [2] it was 94%; in test [3], 95%.

Consider `Cc1cc(C)c(O[C@H]2CC[C@@]3(CC2)C(=O)Nc2ccc(C(=O)O)cc23)cn1` [Example 36, (1r,4r)-4-((4,6-dimethylpyridin-3-yl)oxy)-2′-oxo-1′,2′-dihydrospiro[cyclohexane-1,3′-indole]-5′-carboxylic acid], for which the inhibition at 0.1 µM in test [1] was 72%; in test [2] it was 92%; in test [3] it was 95%.

Take `O=C(O)c1ccc2c(c1)[C@]1(CC[C@@H](Oc3ccccc3Cl)CC1)C(=O)N2` [Example 12, (1r,4r)-4-(2-chlorophenoxy)-2′-oxo-1′,2′-dihydrospiro[cyclohexane-1,3′-indole]-5′-carboxylic acid]: the inhibition at 0.1 µM in test [1] stood at 95%; in test [2] it was 97%; in test [3], 101%.

Turning to `O=C(O)c1ccc2c(c1)[C@]1(CC[C@H](Oc3ccc(Cl)cc3Cl)CC1)C(=O)N2` [Example 15, (1s,4s)-4-(2,4-dichlorophenoxy)-2′-oxo-1′,2′-dihydrospiro[cyclohexane-1,3′-indole]-5′-carboxylic acid], the inhibition at 0.1 µM in test [1] is 99%; in test [2], 101%; in test [3], 91%.

Take `O=C(O)c1ccc2c(c1)[C@]1(CC[C@@H](Oc3ccc(C(F)(F)F)cc3)CC1)C(=O)N2` [Example 10, (1r,4r)-2-oxo-4-(4-(trifluoromethyl)phenoxy)-1′,2′-dihydrospiro[cyclohexane-1,3′-indole]-5′-carboxylic acid]: the inhibition at 0.1 µM in test [1] stood at 98%; in test [2], 100%; in test [3], 102%.

For `O=C(O)c1ccc2c(c1)[C@]1(CC[C@@H](Oc3cc(F)cc(C(F)(F)F)c3)CC1)C(=O)N2` [Example 76, (1r,4r)-4-(3-fluoro-5-(trifluoromethyl)phenoxy)-2′-oxo-1′,2′-dihydrospiro[cyclohexane-1,3′-indole]-5′-carboxylic acid], the inhibition at 0.1 µM in test [1] was found to be 81%; in test [2], 86%; in test [3], 86%.

For `O=C(O)c1ccc2c(c1)[C@]1(CC[C@H](Oc3ncc(F)cc3F)CC1)C(=O)N2` [Example 13, (1s,4s)-4-((3,5-difluoropyridin-2-yl)oxy)-2′-oxo-1′,2′-dihydrospiro[cyclohexane-1,3′-indole]-5′-carboxylic acid], the figures for the inhibition at 0.1 µM in test [1], in test [2] and in test [3] were 100%, 97% and 100%, respectively.

Take `O=C(O)c1ccc2c(c1)[C@]1(CC[C@@H](Oc3ccc(F)c(Cl)c3)CC1)C(=O)N2` [Example 67, (1r,4r)-4-(3-chloro-4-fluorophenoxy)-2′-oxo-1′,2′-dihydrospiro[cyclohexane-1,3′-indole]-5′-carboxylic acid]: the figures for the inhibition at 0.1 µM in test [1], in test [2] and in test [3] were 93%, 98% and 97%, respectively.

`O=C(O)c1ccc2c(n1)[C@]1(CC[C@H](Oc3c(F)cc(Cl)cc3F)CC1)C(=O)N2` [Example 86, (1s,4s)-4-(4-chloro-2,6-difluorophenoxy)-2′-oxo-1′,2′-dihydrospiro[cyclohexane-1,3′-pyrrolo[3,2-b]pyridine]-5′-carboxylic acid]: the figures for the inhibition at 0.1 µM in test [1], in test [2] and in test [3] were 55%, 50% and 80%, respectively.

For `O=C(O)c1ccc2c(c1)[C@]1(CC[C@@H](Oc3ccc(F)cn3)CC1)C(=O)N2` [Example 22, (1r,4r)-4-((5-fluoropyridin-2-yl)oxy)-2′-oxo-1′,2′-dihydrospiro[cyclohexane-1,3′-indole]-5′-carboxylic acid], the inhibition at 0.1 µM in test [1] was 72%; in test [2], 72%; in test [3] it was 90%.

With `O=C(O)c1ccc2c(n1)[C@]1(CC[C@@H](Oc3ccc(Cl)cc3C(F)(F)F)CC1)C(=O)N2` [Example 95, (1r,4r)-4-(4-chloro-2-(trifluoromethyl)phenoxy)-2′-oxo-1′,2′-dihydrospiro[cyclohexane-1,3′-pyrrolo[3,2-b]pyridine]-5′-carboxylic acid], the figures for the inhibition at 0.1 µM in test [1], in test [2] and in test [3] were 88%, 91% and 96%, respectively.

For the compound `O=C(O)c1ccc2c(c1)[C@]1(CC[C@@H](Oc3ccccn3)CC1)C(=O)N2` [Example 19, (1r,4r)-2′-oxo-4-[pyridin-2-yloxy)-1′,2′-dihydrospiro[cyclohexane-1,3′-indole]-5′-carboxylic acid], the inhibition at 0.1 µM was 40% in test [1], 45% in test [2] and 70% in test [3].
